Test results as given in USRE33699E, “Growth hormone-releasing factor analogs” (International Minerals & Chemical Corp., priority 1990, dated 1991).
Square brackets hold non-standard residues; d marks the D form. Peptide text beside a SMILES is read from it. Nle = CCCC[C@H](N)C(=O)O

System: rat pituitary cells
Assay: Bioassay of hGRF analogs: stimulation of growth hormone release in rat pituitary cells in tissue culture
Format: cell-based
Conditions: for Dose Needed to Release 2.01 μg/ml of GH: 2.01 μg/ml = GH released at the ED50 of hGRF; for Dose Needed to Release 2.01 μg/ml of GH / Relative Maximum Activity (% of hGRF): from ALLFIT curves; for Potency: (ED50 of hGRF)/(Dose required to give same response as ED50 of hGRF)
From the text: The assay for biological activity, which is based on the ability to stimulate release of growth hormone in rat pituitary cells in tissue culture, has been described in detail (Culler, M. D.; Kenjo, T.: Obara, N.; Arimuar, A., Stimulation of cAMP. Accumulation by Human Pancreatic GH-Releasing Factor(1-44). Am. J. Physiol. 1984, 247 (Endocrinol.Metab. 10). E609-E615.
ALLFIT, the 4-parameter logistic curve fitting program available from the Biomedical Computer Technology Information Center, Vanderbilt Medical Center, Nashville Tenn., was used to determine ED50 and maximal stimulated values from the data. In several instances, the amount of GH released reached a maximum value and decreased with further increasing doses of the hGRF analogs. To simplify the data analysis, these values were not used in the calculations. The calculated maximal responses, the doses of the analog required to release the amount of GH released at the ED50 of the standard (hGRF) and the potencies of the analogs relative to hGRF, are given in Table 2. Generally all novel analogs were fully active and were able to stimulate the release of growth hormone with maximal values of GH release being within 80% of the value for natural hGRF.

Row | Compound | Dose Needed to Release 2.01 μg/ml of GH [nM] | Potency [%] | Relative Maximum Activity (% of hGRF) | Potency (Asp^8, Nle^27 ]) [%]
1 | CCCC[C@H](NC(=O)[C@@H](NC(=O)[C@H](CC(=O)O)NC(=O)[C@H](CCC(N)=O)NC(=O)[C@H](CC(C)C)NC(=O)[C@H](CC(C)C)NC(=O)[C@H](CCCCN)NC(=O)[C@H](CCCNC(=N)N)NC(=O)[C@H](C)NC(=O)[C@H](CO)NC(=O)[C@H](CC(C)C)NC(=O)[C@H](CCC(N)=O)NC(=O)CNC(=O)[C@H](CC(C)C)NC(=O)[C@@H](NC(=O)[C@H](CCCCN)NC(=O)[C@H](CCCNC(=N)N)NC(=O)[C@H](Cc1ccc(O)cc1)NC(=O)[C@H](CO)NC(=O)[C@H](CC(=O)O)NC(=O)[C@@H](NC(=O)[C@H](Cc1ccccc1)NC(=O)[C@@H](NC(=O)[C@H](C)NC(=O)[C@H](CC(=O)O)NC(=O)[C@H](C)NC(=O)[C@@H](N)Cc1ccc(O)cc1)[C@@H](C)CC)[C@@H](C)O)C(C)C)[C@@H](C)CC)C(=O)N[C@@H](CO)C(=O)N[C@@H](CCCNC(=N)N)C(=O)N[C@@H](CCC(N)=O)C(=O)N[C@@H](CCC(N)=O)C(N)=O [[Asp^8, Nle^27]-hGRF(1-31)--NH2, [Asp^8,Nle^27]-hGRF(1-31)--NH2] (H-YADAIFTDSYRKVLGQLSARKLLQDI[Nle]SRQQ-NH2) | 0.39 | 82 | 109 % of hGRF | 
2 | CC[C@H](C)[C@H](NC(=O)[C@H](C)NC(=O)[C@H](CC(=O)O)NC(=O)[C@H](C)NC(=O)[C@@H](N)Cc1ccc(O)cc1)C(=O)N[C@@H](Cc1ccccc1)C(=O)N[C@H](C(=O)N[C@@H](CC(N)=O)C(=O)N[C@@H](CO)C(=O)N[C@@H](Cc1ccc(O)cc1)C(=O)N[C@@H](CCCNC(=N)N)C(=O)N[C@@H](CCCCN)C(=O)N[C@H](C(=O)N[C@@H](CC(C)C)C(=O)NCC(=O)N[C@@H](CCC(N)=O)C(=O)N[C@@H](CC(C)C)C(=O)N[C@@H](CO)C(=O)N[C@@H](C)C(=O)N[C@@H](CCCNC(=N)N)C(=O)N[C@@H](CCCCN)C(=O)N[C@@H](CC(C)C)C(=O)N[C@@H](CC(C)C)C(=O)N[C@@H](CCC(N)=O)C(=O)N[C@@H](CC(=O)O)C(=O)N[C@H](C(=O)N[C@@H](CCSC)C(=O)N[C@@H](CO)C(=O)N[C@@H](CCCNC(=N)N)C(=O)N[C@@H](CCC(N)=O)C(=O)N[C@@H](CCC(N)=O)C(=O)NCC(=O)N[C@@H](CCC(=O)O)C(=O)N[C@@H](CO)C(=O)N[C@@H](CC(N)=O)C(=O)N[C@@H](CCC(N)=O)C(=O)N[C@@H](CCC(=O)O)C(=O)N[C@@H](CCCNC(=N)N)C(=O)NCC(=O)N[C@@H](C)C(=O)N[C@@H](CCCNC(=N)N)C(=O)N[C@@H](C)C(=O)N[C@@H](CCCNC(=N)N)C(=O)N[C@@H](CC(C)C)C(N)=O)[C@@H](C)CC)C(C)C)[C@@H](C)O [hGRF(1-44)--NH2, reference compound] | 0.32 | 100 | 100 % of hGRF | 
3 | CCCC[C@H](NC(=O)[C@@H](NC(=O)[C@H](CC(=O)O)NC(=O)[C@H](CCC(N)=O)NC(=O)[C@H](CC(C)C)NC(=O)[C@H](CC(C)C)NC(=O)[C@H](CCCCN)NC(=O)[C@H](CCCNC(=N)N)NC(=O)[C@H](C)NC(=O)[C@H](CO)NC(=O)[C@H](CC(C)C)NC(=O)[C@H](CCC(N)=O)NC(=O)CNC(=O)[C@H](CC(C)C)NC(=O)[C@@H](NC(=O)[C@H](CCCCN)NC(=O)[C@H](CCCNC(=N)N)NC(=O)[C@H](Cc1ccc(O)cc1)NC(=O)[C@H](CO)NC(=O)[C@H](CC(=O)O)NC(=O)[C@@H](NC(=O)[C@H](Cc1ccccc1)NC(=O)[C@@H](NC(=O)[C@H](C)NC(=O)[C@H](CC(N)=O)NC(=O)[C@H](C)NC(=O)[C@@H](N)Cc1ccc(O)cc1)[C@@H](C)CC)[C@@H](C)O)C(C)C)[C@@H](C)CC)C(=O)N[C@@H](CO)C(=O)N[C@@H](CCCNC(=N)N)C(=O)N[C@@H](CCC(N)=O)C(=O)N[C@@H](CCC(N)=O)C(N)=O [[Asn^3, Asp^8, Nle^27]-hGRF(1-31)--NH2, [Asn^3,Asp^8,Nle^27]-hGRF(1-31)--NH2] (H-YANAIFTDSYRKVLGQLSARKLLQDI[Nle]SRQQ-NH2) | 6.74 | 3 | 107 % of hGRF | 5
4 | CCCC[C@H](NC(=O)[C@@H](NC(=O)[C@H](CC(=O)O)NC(=O)[C@H](CCC(N)=O)NC(=O)[C@H](CC(C)C)NC(=O)[C@H](CC(C)C)NC(=O)[C@H](CCCCN)NC(=O)[C@H](CCCNC(=N)N)NC(=O)[C@H](C)NC(=O)[C@H](CO)NC(=O)[C@H](CC(C)C)NC(=O)[C@H](CCC(N)=O)NC(=O)CNC(=O)[C@H](CC(C)C)NC(=O)[C@@H](NC(=O)[C@H](CCCCN)NC(=O)[C@H](CCCNC(=N)N)NC(=O)[C@H](Cc1ccc(O)cc1)NC(=O)[C@H](CO)NC(=O)[C@H](CC(N)=O)NC(=O)[C@@H](NC(=O)[C@H](Cc1ccccc1)NC(=O)[C@@H](NC(=O)[C@H](C)NC(=O)[C@H](CC(N)=O)NC(=O)[C@H](C)NC(=O)[C@@H](N)Cc1ccc(O)cc1)[C@@H](C)CC)[C@@H](C)O)C(C)C)[C@@H](C)CC)C(=O)N[C@@H](CO)C(=O)N[C@@H](CCCNC(=N)N)C(=O)N[C@@H](CCC(N)=O)C(=O)N[C@@H](CCC(N)=O)C(N)=O [[Asn^3, Nle^27]-hGRF(1-31)--NH2] (H-YANAIFTNSYRKVLGQLSARKLLQDI[Nle]SRQQ-NH2) | 0.58 | 55 | 93 % of hGRF | 
5 | CCCC[C@H](NC(=O)[C@@H](NC(=O)[C@H](CC(N)=O)NC(=O)[C@H](CCC(N)=O)NC(=O)[C@H](CC(C)C)NC(=O)[C@H](CC(C)C)NC(=O)[C@H](CCCCN)NC(=O)[C@H](CCCNC(=N)N)NC(=O)[C@H](C)NC(=O)[C@H](CO)NC(=O)[C@H](CC(C)C)NC(=O)[C@H](CCC(N)=O)NC(=O)CNC(=O)[C@H](CC(C)C)NC(=O)[C@@H](NC(=O)[C@H](CCCCN)NC(=O)[C@H](CCCNC(=N)N)NC(=O)[C@H](Cc1ccc(O)cc1)NC(=O)[C@H](CO)NC(=O)[C@H](CC(N)=O)NC(=O)[C@@H](NC(=O)[C@H](Cc1ccccc1)NC(=O)[C@@H](NC(=O)[C@H](C)NC(=O)[C@H](CC(=O)O)NC(=O)[C@H](C)NC(=O)[C@@H](N)Cc1ccc(O)cc1)[C@@H](C)CC)[C@@H](C)O)C(C)C)[C@@H](C)CC)C(=O)N[C@@H](CO)C(=O)N[C@@H](CCCNC(=N)N)C(=O)N[C@@H](CCC(N)=O)C(=O)N[C@@H](CCC(N)=O)C(N)=O [[Asn^25, Nle^27]-hGRF(1-31)--NH2, [Asn^25,Nle^27]-hGRF(1-31)--NH2] (H-YADAIFTNSYRKVLGQLSARKLLQNI[Nle]SRQQ-NH2) | 0.12 | 267 | 96 % of hGRF | 
